According to article PMC7598271, “In Vitro Studies to Define the Cell-Surface and Intracellular Targets of Polyarginine-Conjugated Sodium Borocaptate as a Potential Delivery Agent for Boron Neutron Capture Therapy” (Cells, 2020):

Assays:
[1] = system: NMuMG-GFP, NMuMG-HRas/shp53 and NMuMG-HRas/shp53/YAP1 cells; assay: Immunofluorescent analysis of uptake in transformed NMuMG cells; format: cell-based, murine; conditions: BSH 2 mM, NMuMG-HRas/shp53, NMuMG-HRas/shp53/YAP1 (Figure 4C)
From the text: For transformation of the NMuMG cells, we prepared virus particles of pTomo-HRas/shRNA-p53 (Vector plasmid was a kind gift from Dr. Dinorah Morvinski, Tel Aviv University), pTomo (Addgene, #26291), FUW-tetO-wtYAP (Addgene, #84009), and FUdeltaGW-rtTA (Addgene, #19780), and infected cells in the same manner as written above. After the infection of pTomo viruses (pTomo-HRas/shRNA-p53 was used for malignant transformation, with pTomo for a negative control), the cells were further treated with adenovirus harboring Cre recombinase (cat#ADV-005) (Cell Biolabs Inc., San Diego, CA, USA), to activate the HRas expression cassette. The transformation was confirmed by the acquisition of the spheroid-forming capacity and morphological change (epithelial to spindle form).
(§1) The immunostaining of cells was performed as previously described with brief modifications. The cells were fixed with 4% paraformaldehyde (PFA) for 15 min, permeated with 0.05% Triton X-100 for 10 min, and blocked with 5% goat serum. Then, the samples were incubated with primary antibodies for 16 h at 4 °C and secondary antibodies for 1 h at room temperature. Primary antibodies against CD44 were purchased from Abcam (Cambridge, UK) (ab157107). Antibodies against the BSH molecule (clone#: 36-2H or 38-5C) were developed by ITM Co., Ltd. (Nagano, Japan). […]

eRF3 = molecular target: T1, eRF3 (Homo sapiens, UniProt P15170); assay: Immunoprecipitation with anti-BSH antibody from U251 cell lysate, Western blotting; format: binding; conditions: lysate with or without 10 µg/mL RNase A, 1 h at room temperature (Figure 6B)
T1 construct: we performed immunoprecipitation from the pre-cleaned lysate of U251 cells; endogenous in cells; host or cells: U251 glioma cell lysate
T1 sequence (P15170 whole entry): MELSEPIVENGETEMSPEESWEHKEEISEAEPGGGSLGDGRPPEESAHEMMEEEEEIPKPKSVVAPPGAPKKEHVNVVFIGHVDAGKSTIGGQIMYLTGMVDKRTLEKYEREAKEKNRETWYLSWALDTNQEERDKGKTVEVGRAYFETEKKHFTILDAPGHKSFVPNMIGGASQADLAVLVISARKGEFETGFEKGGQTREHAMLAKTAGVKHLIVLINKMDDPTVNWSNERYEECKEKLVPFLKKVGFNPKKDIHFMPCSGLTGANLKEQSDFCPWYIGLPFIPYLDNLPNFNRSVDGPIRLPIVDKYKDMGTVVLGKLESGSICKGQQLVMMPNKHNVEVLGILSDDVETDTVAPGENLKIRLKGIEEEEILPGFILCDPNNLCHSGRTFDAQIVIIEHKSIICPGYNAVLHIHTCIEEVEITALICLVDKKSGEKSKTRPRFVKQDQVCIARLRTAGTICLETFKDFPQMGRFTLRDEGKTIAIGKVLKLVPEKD
Procedure: (§2) Western blotting was performed as previously described. The cells were lysed in cell lysis buffer (20 mM Tris-HCl (pH =7.5), 150 mM NaCl, 1 mM EDTA, 1 mM Na2EGTA (ethylene glycol-bis(β-aminoethyl ether)-N,N,N′,N′-tetraacetic acid), 0.5% Triton X-100) supplemented with cOmplete Protease Inhibitor Cocktail (Sigma-Aldrich Co. LLC, St. Louis, MO, USA), and PhosSTOP phosphatase inhibitor cocktail (Sigma-Aldrich Co. LLC, St. Louis, MO, USA). After sonication and centrifugation (15,000 rpm, 4 °C, 10 min), the protein concentration of the supernatants was measured using a bicinchoninic acid (BCA) protein assay (Thermo Fisher Scientific, Inc., Waltham, MA, USA). The supernatants were added to 1/3 volume of 4x SDS sample buffer (240 mM Tris-HCl (pH=6.8), 8% sodium dodecyl sulfate (SDS), 40% glycerol, 0.1% bromophenol blue, 20% 2-mercaptoethanol) and boiled at 95 °C for 5 min. Then, the samples were applied to SDS-polyacrylamide gel electrophoresis (PAGE) and transferred to polyvinylidene fluoride (PVDF) membrane (Immobilon-P, 0.45 µm) (MilliporeSigma, Burlington, MA, USA). The membranes were blocked with 0.5% skim milk (nacalai tesque, Kyoto, Japan) in tris-buffered saline with tween20 (TBST, 137 mM NaCl, 2.68 mM KCl, 25 mM Tris (pH=7.4), 0.1% Tween20) and incubated with primary antibodies for 16 h at 4 °C and secondary antibodies for 1 h at room temperature. The signals were developed with Clarity Western enhanced chemiluminescence (ECL) Substrate (Bio-Rad Laboratories, Inc., Hercules, CA, USA) and detected with a ChemiDoc imaging system (Bio-Rad Laboratories, Inc., Hercules, CA, USA).
(§3) Immunoprecipitation was performed as previously described with modification. Briefly, the cells were lysed in cell lysis buffer supplemented with cOmplete Protease Inhibitor Cocktail and PhosSTOP phosphatase inhibitor cocktail. The lysate was passed through a 23G needle syringe 10 times and centrifuged at 15,000 rpm, at 4 °C, for 10 min. […]

eIF4G = molecular target: T2, eIF4G (Homo sapiens, UniProt Q04637); assay: as above; format: binding
T2 construct: we performed immunoprecipitation from the pre-cleaned lysate of U251 cells; endogenous in cells; host or cells: U251 (U251MG) glioma cells
T2 sequence (Q04637 whole entry): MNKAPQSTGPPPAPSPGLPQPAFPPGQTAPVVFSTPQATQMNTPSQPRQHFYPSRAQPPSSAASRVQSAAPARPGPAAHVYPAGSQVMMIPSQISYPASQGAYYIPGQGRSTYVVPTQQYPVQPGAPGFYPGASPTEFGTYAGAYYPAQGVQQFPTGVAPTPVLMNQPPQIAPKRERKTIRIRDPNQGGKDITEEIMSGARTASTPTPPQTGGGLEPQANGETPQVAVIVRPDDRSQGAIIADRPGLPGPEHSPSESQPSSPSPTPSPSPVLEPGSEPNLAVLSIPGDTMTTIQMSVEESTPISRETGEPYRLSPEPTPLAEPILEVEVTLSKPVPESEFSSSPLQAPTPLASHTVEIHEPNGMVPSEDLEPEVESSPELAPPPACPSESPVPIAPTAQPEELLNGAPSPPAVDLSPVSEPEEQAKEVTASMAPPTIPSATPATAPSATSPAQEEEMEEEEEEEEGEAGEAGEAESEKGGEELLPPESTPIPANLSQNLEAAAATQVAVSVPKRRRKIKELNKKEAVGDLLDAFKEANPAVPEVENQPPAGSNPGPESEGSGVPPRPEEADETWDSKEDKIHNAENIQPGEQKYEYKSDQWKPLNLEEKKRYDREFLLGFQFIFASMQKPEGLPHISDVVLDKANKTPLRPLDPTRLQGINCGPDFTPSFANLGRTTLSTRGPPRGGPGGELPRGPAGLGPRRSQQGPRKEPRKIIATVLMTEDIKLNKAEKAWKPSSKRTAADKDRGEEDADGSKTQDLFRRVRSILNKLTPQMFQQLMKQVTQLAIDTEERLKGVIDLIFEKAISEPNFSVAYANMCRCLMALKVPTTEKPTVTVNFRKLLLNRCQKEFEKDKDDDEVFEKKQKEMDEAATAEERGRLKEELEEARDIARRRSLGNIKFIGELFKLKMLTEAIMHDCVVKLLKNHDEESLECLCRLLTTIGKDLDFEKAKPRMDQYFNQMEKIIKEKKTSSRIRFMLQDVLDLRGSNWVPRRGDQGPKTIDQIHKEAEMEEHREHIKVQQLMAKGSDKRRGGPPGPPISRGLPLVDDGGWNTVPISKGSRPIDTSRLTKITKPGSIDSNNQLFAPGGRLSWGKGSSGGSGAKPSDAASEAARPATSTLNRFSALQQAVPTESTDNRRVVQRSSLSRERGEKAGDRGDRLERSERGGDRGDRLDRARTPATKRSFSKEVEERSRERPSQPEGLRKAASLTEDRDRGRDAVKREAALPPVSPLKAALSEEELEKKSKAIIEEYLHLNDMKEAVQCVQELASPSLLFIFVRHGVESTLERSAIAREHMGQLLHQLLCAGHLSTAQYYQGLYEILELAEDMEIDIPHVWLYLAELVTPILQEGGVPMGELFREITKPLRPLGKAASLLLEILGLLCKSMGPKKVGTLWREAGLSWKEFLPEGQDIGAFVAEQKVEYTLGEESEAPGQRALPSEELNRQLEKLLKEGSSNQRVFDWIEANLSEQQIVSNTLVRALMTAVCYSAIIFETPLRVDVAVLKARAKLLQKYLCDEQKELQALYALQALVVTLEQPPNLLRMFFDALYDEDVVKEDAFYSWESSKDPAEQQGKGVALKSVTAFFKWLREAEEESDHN
Procedure: as §2, §3

eIF4A = molecular target: T3, eIF4A (Homo sapiens, UniProt P60842); assay: as above; format: binding; conditions: lysate with or without 10 µg/mL RNase A, 1 h at room temperature (Figure 6B)
T3 construct: we performed immunoprecipitation from the pre-cleaned lysate of U251 cells; endogenous in cells; host or cells: U251 glioma cell lysate
T3 sequence (P60842 whole entry): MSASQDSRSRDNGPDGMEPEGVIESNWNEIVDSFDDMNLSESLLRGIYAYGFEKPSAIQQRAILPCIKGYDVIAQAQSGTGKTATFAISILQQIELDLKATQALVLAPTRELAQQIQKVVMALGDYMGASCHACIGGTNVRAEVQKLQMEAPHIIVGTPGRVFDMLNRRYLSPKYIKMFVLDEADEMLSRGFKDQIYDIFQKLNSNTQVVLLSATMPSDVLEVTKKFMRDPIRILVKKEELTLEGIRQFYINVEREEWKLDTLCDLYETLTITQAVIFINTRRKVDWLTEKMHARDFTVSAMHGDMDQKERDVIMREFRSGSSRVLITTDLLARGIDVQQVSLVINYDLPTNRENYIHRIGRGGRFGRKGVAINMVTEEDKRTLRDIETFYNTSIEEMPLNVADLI
Procedure: as §2, with “MA, USA). […] The signals” for “MA, USA). The membranes were blocked with 0.5% skim milk (nacalai tesque, Kyoto, Japan) in tris-buffered saline with tween20 (TBST, 137 mM NaCl, 2.68 mM KCl, 25 mM Tris (pH=7.4), 0.1% Tween20) and incubated with primary antibodies for 16 h at 4 °C and secondary antibodies for 1 h at room temperature. The signals”, “CA, USA). […]” for “CA, USA).”

CD44 protein = assay: Immunoprecipitation with anti-BSH antibody and Western blotting for CD44; format: binding, human; conditions: MDA-MB-231 cell lysate 2000 µg/mL, compound 20 µM, 1 h at 4 °C, anti-BSH antibody 10 µg/mL, Western blotting (Figure 3A)
Procedure: as §2, with “MA, USA). […] The signals” for “MA, USA). The membranes were blocked with 0.5% skim milk (nacalai tesque, Kyoto, Japan) in tris-buffered saline with tween20 (TBST, 137 mM NaCl, 2.68 mM KCl, 25 mM Tris (pH=7.4), 0.1% Tween20) and incubated with primary antibodies for 16 h at 4 °C and secondary antibodies for 1 h at room temperature. The signals”, “CA, USA). […]” for “CA, USA).”

U251MG cells = assay: Immunofluorescent analysis of cellular uptake with anti-BSH antibody; format: cell-based, human; conditions: U251 glioma cells, 20 µM, immunofluorescent analysis (Figure 1B)
Procedure: Human glioma cell lines U87MG and U251MG, human breast cancer cell lines MCF7 and MDA-MB-231, human pancreatic cancer cell lines CFPAC1 and PANC1, and murine mammary gland cell line NMuMG, were cultured in Dulbecco’s modified Eagle’s medium (DMEM) (FUJIFILM Wako Pure Chemical Corporation, Osaka, Japan) with 10% fetal bovine serum (FBS) (Corning Inc., Corning, NY, USA) and penicillin/streptomycin/L-glutamine (Fujifilm-Wako, Japan) as previously described. U87MG, MDA-MB-231, CFPAC-1, PANC-1, and NMuMG were obtained from the American Type Culture Collection (ATCC, Manassas, VA, USA) (catalogue number: HTB-14, HTB-26, CRL-1918, CRL-1469, and CRL-1636, respectively). U251MG and MCF7 were obtained from the Japanese Collection of Research Bioresources Cell Bank (JCRB, Ibaraki, Japan) (catalogue number: IFO50288 and JCRB0134, respectively).
as §1

[2] = molecular target: T4, poly(A)-binding protein 1 (PABP1) (Homo sapiens, UniProt P11940); assay: Immunoprecipitation with anti-BSH antibody from U251 cell lysate, Western blotting
T4 construct: we performed immunoprecipitation from the pre-cleaned lysate of U251 cells; endogenous in cells; host or cells: U251 (U251MG) glioma cells
T4 sequence (P11940 whole entry): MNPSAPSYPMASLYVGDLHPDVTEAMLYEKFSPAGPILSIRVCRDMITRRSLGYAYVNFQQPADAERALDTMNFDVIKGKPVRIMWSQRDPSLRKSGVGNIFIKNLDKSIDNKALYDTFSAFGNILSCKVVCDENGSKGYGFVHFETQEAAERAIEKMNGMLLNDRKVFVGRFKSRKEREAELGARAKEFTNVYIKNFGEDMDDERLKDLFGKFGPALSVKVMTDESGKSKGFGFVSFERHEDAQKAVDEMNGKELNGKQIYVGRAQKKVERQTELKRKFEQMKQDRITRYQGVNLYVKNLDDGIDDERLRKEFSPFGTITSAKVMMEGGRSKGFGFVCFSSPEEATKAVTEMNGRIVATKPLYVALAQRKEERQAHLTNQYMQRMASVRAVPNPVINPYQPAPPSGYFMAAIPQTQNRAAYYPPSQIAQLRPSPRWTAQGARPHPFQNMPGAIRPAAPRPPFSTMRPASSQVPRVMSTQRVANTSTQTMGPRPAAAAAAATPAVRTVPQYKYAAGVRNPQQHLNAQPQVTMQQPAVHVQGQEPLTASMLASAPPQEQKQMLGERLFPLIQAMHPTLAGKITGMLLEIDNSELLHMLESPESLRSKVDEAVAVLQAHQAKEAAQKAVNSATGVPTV
Procedure: as §2, §3

[3] = immunoprecipitation with 20 µM of BSH, BSH-3R, BSH-11R (Figure 7A)
[4] = lysate with or without 10 µg/mL RNase A, 1 h at room temperature (Figure 6B)

binding to eRF3 (eRF3): did not bind to BSH | eIF4G binding, dependence on arginine length (eIF4G; [3]): did not observe a significant difference | passage through the plasma membrane (U251MG cells): could not | PABP1 binding, dependence on arginine length [2, 3]: bound to BSH in an RNA-dependent manner | RNA dependence of binding to PABP1 [2, 4]: bound to PABP1 in the presence of RNA
Substance: mercaptoundecahydrododecaborate [BSH]
BSH immunofluorescent signal in cells [1]: did not show any signals in all types of cells | RNA dependence of binding to eIF4G (eIF4G; [4]): little eIF4G was pulled-down with BSH in the presence of RNA | RNA dependence of binding to eIF4A (eIF4A): did not bind to BSH in the presence or absence of RNA | co-precipitation of CD44 protein with anti-BSH antibody (CD44 protein): failed to precipitate CD44 | binding to PABP1 (immunoprecipitation) ([2]; pre-cleaned U251 lysate, 20 µM (Figure 6A)): had a binding capacity with poly(A)-binding protein 1 (PABP1)
